Experimental data taken from ChEMBL document CHEMBL3885861, “Open TG-GATES”.

Organism: Rattus norvegicus
Test: Open TG-GATES - Regimen: Single
Type: toxicity, organism-based, Sprague-Dawley
Design: regimen Single, gender Male, age 6 weeks
Conditions: in vivo, po, 0 mg/kg, route gavage, dose level Control; for Bas / Eos / Fbg / Hb / Ht / Lym / MCHC / MCV / Mono / PT / Plat / RBC / WBC / APTT: tissue Blood; for KIDNEY_L / KIDNEY_R / KIDNEY_TOTAL: tissue Kidney; for LIVER: tissue Liver; for ALP / ALT / AST / CRE / Ca / Cl / DBIL / GLC / K / LDH / Na / PL / RALB / TBIL / TC / TG / TP / gamma-GTP: tissue Plasma

Compound: COc1ccc([C@@H]2Sc3ccccc3N(CCN(C)C)C(=O)[C@@H]2OC(C)=O)cc1 [DILTIAZEM]
- TERMINAL_BW (3 h): 181.4 g
- Bas (3 h): 0%
- Eos (3 h): 0.8%
- Fbg (3 h): 269 mg/dL
- Hb (3 h): 13 g/dL
- Ht (3 h): 40.2%
- Lym (3 h): 76.8%
- MCHC (3 h): 32.3%
- MCV (3 h): 67 fL
- Mono (3 h): 3.4%
- PT (3 h): 14.3 s
- Plat (3 h): 127.1 x10_4/uL
- RBC (3 h): 600.6 x10_4/ul
- WBC (3 h): 84.6 x10_2/uL
- KIDNEY_L (3 h): 0.9 g
- KIDNEY_R (3 h): 0.9 g
- KIDNEY_TOTAL (3 h): 1.8 g
- LIVER (3 h): 8.3 g
- ALP (3 h): 1273 IU/L
- ALT (3 h): 43.2 IU/L
- AST (3 h): 75.4 IU/L
- CRE (3 h): 0.2 mg/dL
- Ca (3 h): 10.9 mg/dL
- Cl (3 h): 106.8 meq/L
- DBIL (3 h): 0.01 mg/dL
- GLC (3 h): 178.4 mg/dL
- K (3 h): 4.4 meq/L
- LDH (3 h): 79.2 IU/L
- Na (3 h): 142 meq/L
- PL (3 h): 141 mg/dL
- RALB (3 h): 2.5 g/dL
- TBIL (3 h): 0.04 mg/dL
- TC (3 h): 83.2 mg/dL
- TG (3 h): 38.4 mg/dL
- TP (3 h): 5.1 g/dL
- gamma-GTP (3 h): 1 IU/L
- TERMINAL_BW (6 h): 181.1 g
- APTT (6 h): 18.2 s
- Bas (6 h): 0%
- Eos (6 h): 0.4%
- Fbg (6 h): 280 mg/dL
- Hb (6 h): 13.3 g/dL
- Ht (6 h): 40.7%
- Lym (6 h): 78%
- MCHC (6 h): 32.6%
- MCV (6 h): 66.8 fL
- Mono (6 h): 2.6%
- PT (6 h): 14.5 s
- Plat (6 h): 116.6 x10_4/uL
- RBC (6 h): 609.6 x10_4/ul
- WBC (6 h): 77 x10_2/uL
- KIDNEY_L (6 h): 0.8 g
- KIDNEY_R (6 h): 0.8 g
- KIDNEY_TOTAL (6 h): 1.7 g
- LIVER (6 h): 7.8 g
- ALP (6 h): 1331.4 IU/L
- ALT (6 h): 40.2 IU/L
- AST (6 h): 69.4 IU/L
- CRE (6 h): 0.2 mg/dL
- Ca (6 h): 10.8 mg/dL
- Cl (6 h): 106.6 meq/L
- DBIL (6 h): 0.006 mg/dL
- GLC (6 h): 171.6 mg/dL
- K (6 h): 4.1 meq/L
- LDH (6 h): 61.4 IU/L
- Na (6 h): 143 meq/L
- PL (6 h): 129.8 mg/dL
- RALB (6 h): 2.5 g/dL
- TBIL (6 h): 0.038 mg/dL
- TC (6 h): 71.8 mg/dL
- TG (6 h): 43.2 mg/dL
- TP (6 h): 5.1 g/dL
- gamma-GTP (6 h): 1 IU/L
- TERMINAL_BW (9 h): 180.5 g
- APTT (9 h): 17 s
- Bas (9 h): 0%
- Eos (9 h): 0.6%
- Fbg (9 h): 313 mg/dL
- Hb (9 h): 13.3 g/dL
- Ht (9 h): 41.1%
- Lym (9 h): 75.4%
- MCHC (9 h): 32.3%
- MCV (9 h): 66.5 fL
- Mono (9 h): 2.4%
- PT (9 h): 14.5 s
- Plat (9 h): 126.8 x10_4/uL
- RBC (9 h): 619.2 x10_4/ul
- WBC (9 h): 78.7 x10_2/uL
- KIDNEY_L (9 h): 0.8 g
- KIDNEY_R (9 h): 0.8 g
- KIDNEY_TOTAL (9 h): 1.7 g
- LIVER (9 h): 6.9 g
- ALP (9 h): 1820.2 IU/L
- ALT (9 h): 43 IU/L
- AST (9 h): 75.4 IU/L
- CRE (9 h): 0.2 mg/dL
- Ca (9 h): 10.6 mg/dL
- Cl (9 h): 107 meq/L
- DBIL (9 h): 0.01 mg/dL
- GLC (9 h): 178 mg/dL
- K (9 h): 4.1 meq/L
- LDH (9 h): 71.8 IU/L
- Na (9 h): 142.2 meq/L
- PL (9 h): 119.4 mg/dL
- RALB (9 h): 2.5 g/dL
- TBIL (9 h): 0.038 mg/dL
- TC (9 h): 67.2 mg/dL
- TG (9 h): 28.4 mg/dL
- TP (9 h): 5.2 g/dL
- gamma-GTP (9 h): 1.8 IU/L
- TERMINAL_BW (24 h): 198.1 g
- Bas (24 h): 0%
- Eos (24 h): 1%
- Fbg (24 h): 259.8 mg/dL
- Hb (24 h): 13 g/dL
- Ht (24 h): 39.6%
- Lym (24 h): 74.6%
- MCHC (24 h): 32.9%
- MCV (24 h): 64.9 fL
- Mono (24 h): 3.4%
- PT (24 h): 14.8 s
- Plat (24 h): 119.2 x10_4/uL
- RBC (24 h): 610.2 x10_4/ul
- WBC (24 h): 90.7 x10_2/uL
- KIDNEY_L (24 h): 0.9 g
- KIDNEY_R (24 h): 0.9 g
- KIDNEY_TOTAL (24 h): 1.8 g
- LIVER (24 h): 8.9 g
- ALT (24 h): 48 IU/L
- AST (24 h): 77 IU/L
- CRE (24 h): 0.2 mg/dL
- Ca (24 h): 11.1 mg/dL
- Cl (24 h): 107 meq/L
- DBIL (24 h): 0.014 mg/dL
- GLC (24 h): 187.4 mg/dL
- K (24 h): 4.2 meq/L
- LDH (24 h): 88.4 IU/L
- Na (24 h): 143.8 meq/L
- PL (24 h): 148.6 mg/dL
- RALB (24 h): 2.6 g/dL
- TBIL (24 h): 0.03 mg/dL
- TC (24 h): 76.6 mg/dL
